# From patent US20210186930A1, “Methods of Treating Renal Disease Associated With Chronic Kidney Disease Such as Alport Syndrome” (UNIVERSITY OF MIAMI, priority 2018, published 2021)
# Tests used:
# Col4a3−/− mice = test: Renal cortex lipid content in Col4a3-/- mice (Example 4, FIG. 7); format: in vivo, mouse; conditions: for triglyceride (TG) content in kidney cortexes: treated vs untreated Col4a3−/− mice, ezetimibe 5 mg/kg, ramipril 10 mg/kg, 4 weeks
# Procedure: Determination of cholesterol content in kidney cortex: Tissue from kidney cortexes was homogenized in hypotonic buffer (10 mM HEPES pH7.0, 15 mM KCl, 1 mM MgCl2, 10 mM phosphatase inhibitors). Lipids from 100 μl of the homogenate were extracted with 1 ml of hexane:isopropanol (3:2, v/v), dried and reconstituted in 100 μl of isopropanol-NP40 (9:1, v/v). Tissue fractions not soluble in the organic solvent, were further dried, reconstituted in 8 M urea, and assayed for protein concentration using Pierce BCA protein assay kit (ThermoFisher Scientific, MA, USA). Total cholesterol from lipid extracts was determined by the enzymatic method as previously described (Robinet, P., Wang, Z., Hazen, S. L. & Smith, J. D. A simple and sensitive enzymatic method for cholesterol quantification in macrophages and foam cells. Journal of lipid research 51, 3364-3369, 2010). Briefly, endogenous peroxides present were eliminated by incubating samples and standards with catalase (Sigma-Aldrich, MO, USA), 45 U/ml final concentration, for 15 min at 37° C. […] The plates were incubated at 37° C. for 30 min and fluorescence was read at 530 nm (Ex) and 580 nm (Em) in a plate reader (SpectraMax M5, Molecular Devices, CA, USA). Cholesteryl esters (CE) quantification was based on the method described from Toshimi M, et al. Briefly, 25 μl of samples was mixed with 150 μl of free cholesterol decomposition reagent (45 U/ml catalase, 1 U/ml cholesterol oxidase) and incubated 2-4 h at 37° C., and then the final volume was brought up to 250 μl prior to determining free and total cholesterol remaining. Total cholesterol remaining was determined by mixing 50 μl of end product reaction with 50 μl of reagent A, as described above. Free cholesterol remaining was determined similarly, but without including cholesterol esterase in the reagent. CE was calculated by the formula CE=(TC−FC)×DF, where TC is the total cholesterol remaining, FC the free cholesterol remaining and DF the dilution factor, in this case, 10. Lipid content: Oil Red 0 staining was performed on frozen tissue sections and triglyceride content was determined on snap frozen kidney tissue as described above. The following experiment was performed to investigate which treatment, ezetimibe (EZ), ramipril (Ramp) or the combination of both drugs (EZ+Ramp), would best preserve renal function in Col4a3 knockout mice, all drugs were administered to 4-week-old Col4a3−/− mice for 4 weeks as follows: ezetimibe (Ez) was orally administered at a concentration of 5 mg/kg BW, ramipril was added to the drinking water at a concentration that would lead to a daily ramipril uptake of 10 mg/kg BW. All mice were sacrificed at 8 weeks of age. The following four groups of mice were analyzed: Col4a3^+/+, Col4a3^−/−+Ez, Col4a3^−/−+Ramp and Col4a3^−/−+Ez+Ramp.
# Col4a3 knockout mice = test: Fibrosis, lipid droplets, serum and kidney cortex lipids, CD36 in Col4a3 knockout mice treated with ezetimibe (FIG. 4); format: in vivo, mouse
# Procedure: Determination of cholesterol content in kidney cortex: Tissue from kidney cortexes was homogenized in hypotonic buffer (10 mM HEPES pH7.0, 15 mM KCl, 1 mM MgCl2, 10 mM phosphatase inhibitors). Lipids from 100 μl of the homogenate were extracted with 1 ml of hexane:isopropanol (3:2, v/v), dried and reconstituted in 100 μl of isopropanol-NP40 (9:1, v/v). Tissue fractions not soluble in the organic solvent, were further dried, reconstituted in 8 M urea, and assayed for protein concentration using Pierce BCA protein assay kit (ThermoFisher Scientific, MA, USA). Total cholesterol from lipid extracts was determined by the enzymatic method as previously described (Robinet, P., Wang, Z., Hazen, S. L. & Smith, J. D. A simple and sensitive enzymatic method for cholesterol quantification in macrophages and foam cells. Journal of lipid research 51, 3364-3369, 2010). Briefly, endogenous peroxides present were eliminated by incubating samples and standards with catalase (Sigma-Aldrich, MO, USA), 45 U/ml final concentration, for 15 min at 37° C. Then, 50 μl of samples and standards were mixed with 50 μl of reagent A (2 U/ml cholesterol oxidase (Sigma-Aldrich, MO, USA), 0.6 U/ml cholesterol esterase (MP Biomedicals), 2 U/ml HRP (Sigma), 100 μM Amplex Red (ThermoFisher Scientific, MA, USA) in black 96-well plates. The plates were incubated at 37° C. for 30 min and fluorescence was read at 530 nm (Ex) and 580 nm (Em) in a plate reader (SpectraMax M5, Molecular Devices, CA, USA). Cholesteryl esters (CE) quantification was based on the method described from Toshimi M, et al. Briefly, 25 μl of samples was mixed with 150 μl of free cholesterol decomposition reagent (45 U/ml catalase, 1 U/ml cholesterol oxidase) and incubated 2-4 h at 37° C., and then the final volume was brought up to 250 μl prior to determining free and total cholesterol remaining. Total cholesterol remaining was determined by mixing 50 μl of end product reaction with 50 μl of reagent A, as described above. Free cholesterol remaining was determined similarly, but without including cholesterol esterase in the reagent. CE was calculated by the formula CE=(TC−FC)×DF, where TC is the total cholesterol remaining, FC the free cholesterol remaining and DF the dilution factor, in this case, 10.
# Lipid content: Oil Red 0 staining was performed on frozen tissue sections and triglyceride content was determined on snap frozen kidney tissue as described above.
# Mouse models: Mice in which exon 5 of a3 chain of collagen type IV is deleted (Col4a3 KO) were obtained from the Jackson Laboratory (#002908, 129-Col4a3tm1Dec/J). Col4a3 heterozygous littermates were bred to generate Col4a3 KO mice. Four groups of mice with n=3-10 per group were studied. The four groups consisted of: 1) wildtype controls+vehicle, 2) wildtype controls+ezetimibe, 3) Col4a3 KO+vehicle, 4) Col4a3 KO+ezetimibe. ezetimibe was administered by oral gavage daily starting at 4 weeks of age at a concentration of 5 mg/kg body weight. […] Mice were sacrificed at 8 weeks of age when progression to end-stage renal failure had occurred.
# Serology: Immediately prior to sacrifice, a blood sample was collected for the determination of BUN and lipid panel analysis in the comparative laboratory core facility of the University of Miami. Serum creatinine was determined by tandem mass spectrometry (UAB-UCSD O'Brien Core Center, University of Alabama).
# Picrosirius red staining: Paraffin-embedded sections (4 μm thick) were deparaffinized with xylene and a graded alcohol series. Sections were rinsed for 5 min in distilled water, stained for 1 hour with picrosirius red in saturated aqueous picric acid, examined under a light microscope and photomicrographs were taken. Histological images were visualized using a light microscope (Olympus BX 41, Tokyo, Japan) at 40× magnification and analyzed using Image J software.
# [1] = Col4a3 knockout mice, ezetimibe treated vs untreated
structure (smiles),measurement,setting,value
O=C1[C@H](CC[C@H](O)c2ccc(F)cc2)[C@@H](c2ccc(O)cc2)N1c1ccc(F)cc1 [ezetimibe],total cholesterol content (kidney cortexes),Col4a3−/− mice; ezetimibe only treated Col4a3−/− mice,no effect on the total cholesterol content
same,triglyceride (TG) content in kidney cortexes,Col4a3−/− mice,significantly decreased
same,triglyceride (TG) content in kidney cortexes,Col4a3−/− mice; listed as ezetemibe,significantly decreased renal triglyceride content
same,total cholesterol levels in kidney cortexes,"Col4a3 knockout mice; Col4a3 knockout mice, ezetimibe treated or untreated",No change in total cholesterol levels
same,fibrosis (PicroSirius Red staining),Col4a3 knockout mice; [1],significant reduction of fibrosis
same,glomerular lipid droplets (Oil Red O staining),Col4a3 knockout mice; [1],significant reduction of glomerular lipid droplets
same,serum triglyceride levels,Col4a3 knockout mice; [1],significantly decreased
same,total serum cholesterol levels,Col4a3 knockout mice; [1],significantly decreased
same,triglyceride content in kidney cortexes,Col4a3 knockout mice; [1],significantly reduces triglyceride content
same,CD36 expression,Col4a3 knockout mice; ezetimibe treated Col4a3 knockout mice (untreated knockout also increased),significantly increased
same,ratio of esterified to total cholesterol in kidney cortexes,Col4a3 knockout mice; ezetimibe treated Col4a3 knockout mice compared to controls (untreated knockout also increased),significantly increased
